# Source: US12553889B2, “Small molecules targeting the intrinsically disordered structural ensemble of α-synuclein protect against diverse α-synuclein mediated dysfunctions” (The Regents of the University of California, priority 2019, dated 2026)
# “Also recorded” adds a separate entry of the source.
# Key:
# αSyn [1] = biological target: αSyn (Homo sapiens, UniProt P37840); experiment: αSyn split Gaussia luciferase (GLuc) biochemical oligomerization assay; parameters: His tag; made in house; host or cells: E. coli BL21(DE3), pET28b; conditions: 24 hours; for impact on αSyn oligomerization (GLuc complementation): 100 μM compound, 12.5 μM of each tagged synuclein; for impact on αSyn oligomerization relative to other active compounds (GLuc): 100 μM
# Procedure: A mixture of purified αSyn fused at its C-terminus with either the N-Terminal or the C-terminal half of Gaussia luciferase was incubated and the formation of oligomers monitored by reconstituted luciferase activity (FIG. 9, GLuc). For comparison, fibrillization of αSyn was measured in parallel samples by measuring the fluorescence of the dye Thioflavin T (ThT) as is widely used in the field (FIG. 9, ThT). […] The αSyn-Split Gluc tags have been used to detect αSyn oligomerization in cell models via transfection and expression of DNA encoding αSyn fused to split Gluc tags, but it has not previously been used in a biochemical assay using purified proteins as shown here.
# Five to […] each of αSyn-GLuc1 and μM αSyn-GLuc2, (N-terminal or C-terminal fragment of GLuc fused to the C-terminus of αSyn see Example 6) in a buffer consisting of 1 mM MgCl2, 1 mM ADP, 50 mM Na3PO4, 0.02% NaN3 and 1 mM DTT at pH 7.4, were incubated at 37° C. in a thermal cycler (BioRad DNA Engine PTC-200). In experiments in which fibrillization was also measured, samples were incubated in an air incubator with shaking at 1000 rpm. At various time points (typically 0, 6, 12, and 24 hours), Gaussia luciferase activity was quantified using a BioLux Gaussia Luciferase Assay Kit (NEB) according to the manufacturer's instructions and read on a SpectraMax M5 Microplate Reader (Molecular Devices) with 5 minute delay after the addition of substrate and 3 sec integration time reading each well.
# • Mix αSyn-GLuc1 and αSyn-GLuc2 at a final concentration of 10 μM each; • Incubate at 37° C. with shaking at 1000 rpm for 120 hours; • Take aliquot at 0/3/6/12/24/48/72/96/120 hour for analysis by Gaussia luciferase activity assay and ThT assay Methods Gaussia Luciferase Assay (According to BioLux Kit Manual): • 1. Thaw reaction buffer and stabilizer; • 2. Make working solution, for each reaction: • Reaction Buffer 50 μL • BioLux Stabilizer 8 μL • Substrate 0.5 μL • 3. Mix well and wait 5 minutes to use the working solution; • 4. Take out 10 μL GLuc sample and put on white 96-well plates; • 5. Add 50 μL working solution, mix well and wait 3.5 minutes; • 6. Read on the plate reader at 480 nm ThT Assay: • 1. Dilute 1 mM Thioflavin T (M.W. 319 Da) stock in PBS to 25 μM final concentration (1:40 dilution) • 2. Pipet 95 μL of the 25 μM Thioflavin T per well of 384 well plate. • 3. Pipet αSyn fibril up and down to mix, add 5 μL to wells with Thioflavin T • 4. For controls, include 5 μL PBS alone. • 5. Incubate at room temperature for 15 min to 1 hour. • 6. Read plate (excitation 440 nm, emission 482 nm). Method Used to Screen 66 HT-CM-SPR Compounds Using αSyn-GLuc:
# Reaction mix is added into 96-well PCR plate containing:
# Reaction: • αSyn-GLuc1 12.5 μM • αSyn-GLuc2 12.5 μM • Compound 0/12.5/25/50/75/100 μM in DMSO 0.2% • Negative: DMSO 0.2%: • 37 degree (PCR), no shaking
# αSyn [2] = biological target: T1, αSyn (Homo sapiens, UniProt P37840, Q99C); experiment: αSyn FRET (Cy3/Cy5) oligomerization assay; type: biochemical
# T1 construct: made in house; host or cells: E. coli BL21(DE3), pET28b
# Procedure: For the FRET oligomerization assay, 10 μM each of αSyn-Q-C(position number)Cy3 (donor) and αSyn-Q(position number)C-Cy5 (acceptor) in PBS (pH 7.4) were dispensed into black/clear bottom 384-well plates (Greiner) using a Mantis liquid handler (Formulatrix). The plate was sealed with AbsorbMax film (Sigma-Aldrich) and incubated at 37° C. The FRET between donor and acceptor was measured on a SpectraMax M5 Microplate Reader (Molecular Devices). An excitation wavelength of 525 nm for αSyn-Cy3 (donor), and emission wavelengths of 570 nm and 670 nm for αSyn-Cy3 (donor) and αSyn-Cy5 (acceptor) respectively were used. The plate reader PTM sensitivity is set to medium and assays executed without mixing. The signals are read at 10 minute intervals for 99 hours at 37° C. Efficiency of FRET was calculated as follows: EFRET=IAcceptor/IDonor, in which IAcceptor is acceptor emission intensity, IDonor is donor emission intensity.
# • 1. Single point mutation (x to Cys) is introduced to αSyn. • 2. Cy3 and Cy5 are used as FRET probes Brief Procedure: Label αSyn Mutant with Cy3/Cy5 Dyes: • Incubate purified αSyn Q99C with 1 mM TCEP at 4° C. for 3 hours to reduce Cys; • Dissolve Cy3-maleimide or Cy5-maleimide (GE Healthcare) in DMSO; • Add 10× molar excess of dye to αSyn Q99C; • Incubate at 4° C. overnight; • Remove excess dye by HiTrap Desalting column (GE Healthcare); FRET Assay • Mix the following: • αSyn-Q99C-Cy3 5 uM • αSyn-Q99C-Cy5 5 uM
# Measure the fluorescence from Cy3 and Cy5 at 37° C. for 99 hours on a plate reader (SpectraMax M5, Molecular Devices).
structure (smiles),measurement,setting,value
"CNC(=O)c1cc(O)ccc1O [Compound 583854, 2,5-dihydroxy-N-methylbenzamide]",impact on αSyn oligomerization (GLuc complementation),αSyn [1],demonstrated inhibition of αSyn oligomerization
same,impact on αSyn oligomerization relative to other active compounds (GLuc),αSyn [1],more impact on αSyn oligomerization than 576755 and 581823
same,activity in FRET αSyn oligomerization assay,αSyn [2],also active
"CNC(=O)c1cc(O)ccc1N(C)C [Compound 581823, 2-dimethylamino-5-hydroxy-N-methylbenzamide]",impact on αSyn oligomerization (GLuc complementation),αSyn [1],demonstrated inhibition of αSyn oligomerization
same,impact on αSyn oligomerization relative to other active compounds (GLuc),αSyn [1],less impact than 576755
same,activity in FRET αSyn oligomerization assay,αSyn [2],also active
same,impact relative to 576755 in FRET αSyn oligomerization assay,αSyn [2],less impact than 576755
"CNC(=O)c1cc(O)ccc1NC [Compound 581858, 2-methylamino-5-hydroxy-N-methylbenzamide]",impact on αSyn oligomerization (GLuc complementation),αSyn [1],demonstrated inhibition of αSyn oligomerization
same,impact on αSyn oligomerization relative to other active compounds (GLuc),αSyn [1],more impact on αSyn oligomerization than 576755 and 581823
same,activity in FRET αSyn oligomerization assay,αSyn [2],also active
"CNC(=O)c1cc(O)ccc1N [Compound 576755, 2-amino-5-hydroxy-N-methylbenzamide]",impact on αSyn oligomerization (GLuc complementation),αSyn [1],impair αSyn oligomerization; also recorded: demonstrated inhibition of αSyn oligomerization
same,activity in FRET αSyn oligomerization assay,αSyn [2],block αSyn oligomerization
"CNC(=O)CN(C(=O)Cc1noc2ccccc12)C(C)c1ccc(Cl)cc1 (stereo not shown) [Compound 582032, 2-(benzo[d]isoxazol-3-yl)-N-(1-(4-chlorophenyl)ethyl)-N-(2-(methylamino)-2-oxoethyl)acetamide]",impact on αSyn oligomerization (GLuc complementation),αSyn [1],impair αSyn oligomerization
same,activity in FRET αSyn oligomerization assay,αSyn [2],block αSyn oligomerization
"Cc1c(-c2csc(NC(C(N)=O)C3CCNCC3)n2)sc2ccccc12 (stereo not shown) [Compound 573437, 2-((4-(3-methylbenzo[b]thiophen-2-yl)thiazol-2-yl)amino)-2-(piperidin-4-yl)acetamide]",impact on αSyn oligomerization (GLuc complementation),αSyn [1],impair αSyn oligomerization
same,activity in FRET αSyn oligomerization assay,αSyn [2],block αSyn oligomerization
